Patent US12338236B2, “Benzoisothiazole and benzoisoxazole compounds for the treatment of mental disorders” (SUVEN LIFE SCIENCES LIMITED, priority 2022, dated 2025)
Counter-ions that a name gives are not always drawn.

Tests used:
human 5-HT1A receptor = target: T1, human 5-HT1A receptor (Homo sapiens, UniProt P08908); assay: Determination of Ki values at 5-HT1A receptor ([3H]-8-Hydroxy DPAT radioligand binding); details: h5-HT1A, HEK293-EBNA, [3H]-8-Hydroxy DPAT 0.8 nM
T1 construct: expressed in transfected cells; host or cells: HEK293-EBNA
T1 sequence (P08908 1-422): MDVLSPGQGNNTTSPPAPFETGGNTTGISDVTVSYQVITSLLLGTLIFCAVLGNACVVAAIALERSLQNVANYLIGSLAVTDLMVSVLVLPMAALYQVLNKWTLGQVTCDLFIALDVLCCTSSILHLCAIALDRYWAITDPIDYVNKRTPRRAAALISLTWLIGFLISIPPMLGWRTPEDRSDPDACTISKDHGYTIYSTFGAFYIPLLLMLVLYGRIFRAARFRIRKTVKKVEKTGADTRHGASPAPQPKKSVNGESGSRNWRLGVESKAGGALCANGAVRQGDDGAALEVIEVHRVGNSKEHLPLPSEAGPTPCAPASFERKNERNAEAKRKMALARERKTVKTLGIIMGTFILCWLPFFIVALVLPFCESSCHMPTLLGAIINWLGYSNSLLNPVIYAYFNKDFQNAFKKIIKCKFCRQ
Description: Example-43: Determination of Ki Values at 5-HT1A Receptor
• Receptor source: Recombinant mammalian cells (HEK293-EBNA) • Radioligand: [^3H]-8-Hydroxy DPAT (200 Ci/mmol) • Final ligand concentration: 0.8 nM • Non-specific determinant: 0.1 mM U92016A • Reference compound: U92016A • Positive control: U92016A Incubation conditions: Reactions were carried out in buffer with pH 7.4 containing 50 mM Tris-HCl, 0.5 mM EDTA, 10 mM MgSO4, 0.1% Ascorbic acid for 2 h at RT. The reaction was terminated by rapid vacuum filtration onto the glass fiber filters. Radioactivity trapped onto the filters was determined and compared to the control values in order to ascertain any interactions of the test compound(s) with cloned human 5-HT1A receptor binding site.

[1] = target: T2, human dopamine D2s receptor (Homo sapiens, UniProt P14416); assay: Determination of Ki values at D2S receptor ([3H]-Raclopride radioligand binding); details: hD2 (D2S), CHO-K1, [3H]-Raclopride 4 nM; read-out: Ki D2
T2 construct: expressed in transfected cells; host or cells: CHO-K1
T2 sequence (P14416 1-414 isoform P14416-2): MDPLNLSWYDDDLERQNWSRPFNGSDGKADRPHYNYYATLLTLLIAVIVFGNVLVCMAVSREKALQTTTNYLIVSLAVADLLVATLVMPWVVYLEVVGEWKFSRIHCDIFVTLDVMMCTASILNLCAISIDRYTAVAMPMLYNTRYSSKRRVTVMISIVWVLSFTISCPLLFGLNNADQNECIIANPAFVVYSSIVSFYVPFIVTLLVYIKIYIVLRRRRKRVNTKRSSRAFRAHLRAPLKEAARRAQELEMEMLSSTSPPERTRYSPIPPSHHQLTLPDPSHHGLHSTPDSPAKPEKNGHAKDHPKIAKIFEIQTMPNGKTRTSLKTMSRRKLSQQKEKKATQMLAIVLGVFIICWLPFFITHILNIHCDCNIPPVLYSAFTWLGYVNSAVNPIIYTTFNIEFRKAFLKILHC
Description: Example-45: Determination of Ki Values at D2S Receptor
• Receptor source: Recombinant mammalian cells (CHO-K1) • Radioligand: [^3H]-Raclopride (80.8 Ci/mmol) • Final ligand concentration: 4 nM • Non-specific determinant: 0.1 mM Haloperidol • Reference compound: Haloperidol • Positive control: Haloperidol Incubation conditions: Reactions were carried out in buffer with pH 7.4 containing 50 mM Tris-HCl, 120 mM NaCl, 5 mM KCl, 5 mM MgCl2, 1 mM EDTA for 2 h at RT. The reaction was terminated by rapid vacuum filtration onto the glass fiber filters. Radioactivity trapped onto the filters was determined and compared to the control values in order to ascertain any interactions of the test compound(s) with cloned human dopamine D2s receptor binding site.

human SERT = target: T3, human SERT (Homo sapiens, UniProt P31645); assay: Determination of Ki values at SERT receptor ([3H]-Citalopram SPA binding); details: hSERT, HEK293, [3H]-Citalopram 2 nM
T3 construct: expressed in transfected cells; host or cells: HEK293
T3 sequence (P31645 whole entry): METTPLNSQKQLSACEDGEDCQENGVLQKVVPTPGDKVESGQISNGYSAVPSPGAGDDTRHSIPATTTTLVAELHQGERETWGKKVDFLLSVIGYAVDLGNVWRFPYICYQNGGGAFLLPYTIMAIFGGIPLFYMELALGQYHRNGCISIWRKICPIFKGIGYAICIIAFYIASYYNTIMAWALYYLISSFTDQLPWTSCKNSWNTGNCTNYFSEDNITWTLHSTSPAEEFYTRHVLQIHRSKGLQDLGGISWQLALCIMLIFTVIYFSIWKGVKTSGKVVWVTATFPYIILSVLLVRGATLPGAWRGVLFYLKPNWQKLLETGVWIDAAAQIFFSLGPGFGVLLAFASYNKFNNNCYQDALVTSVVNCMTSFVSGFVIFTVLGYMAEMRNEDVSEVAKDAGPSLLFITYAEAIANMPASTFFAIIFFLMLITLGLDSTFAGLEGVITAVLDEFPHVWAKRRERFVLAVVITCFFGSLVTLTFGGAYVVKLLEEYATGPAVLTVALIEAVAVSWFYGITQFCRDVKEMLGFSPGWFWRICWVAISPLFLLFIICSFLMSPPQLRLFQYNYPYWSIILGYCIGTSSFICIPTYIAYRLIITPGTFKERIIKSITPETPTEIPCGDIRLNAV
Description: Example-46: Determination of Ki Values at SERT Receptor
• Receptor source: Recombinant mammalian cells (HEK293) • Radioligand: [^3H]-Citalopram (80.8 Ci/mmol) • Final ligand concentration: 2 nM • Non-specific determinant: 0.1 mM Venlafaxine • Reference compound: Venlafaxine • Positive control: Venlafaxine Incubation conditions: Reactions were carried out in buffer with pH 7.4 containing 50 mM Tris-HCl, 150 mM NaCl, 5 mM KCl and Scintillation proximity assay (SPA) beads (0.1 mg/well) for 3 h at RT. Radioactivity proximal to SPA beads was determined by scintillation proximity assay and compared to the control values in order to ascertain any interactions of the test compound(s) with cloned human SERT receptor binding site.

[2] = target: T4, human histamine H1 receptor (Homo sapiens, UniProt P35367); assay: Determination of Ki values at histamine H1 receptor ([3H]-Pyrilamine SPA binding); details: hH1, CHO-K1, [3H]-Pyrilamine 2 nM
T4 construct: expressed in transfected cells; host or cells: CHO-K1
T4 sequence (P35367 whole entry): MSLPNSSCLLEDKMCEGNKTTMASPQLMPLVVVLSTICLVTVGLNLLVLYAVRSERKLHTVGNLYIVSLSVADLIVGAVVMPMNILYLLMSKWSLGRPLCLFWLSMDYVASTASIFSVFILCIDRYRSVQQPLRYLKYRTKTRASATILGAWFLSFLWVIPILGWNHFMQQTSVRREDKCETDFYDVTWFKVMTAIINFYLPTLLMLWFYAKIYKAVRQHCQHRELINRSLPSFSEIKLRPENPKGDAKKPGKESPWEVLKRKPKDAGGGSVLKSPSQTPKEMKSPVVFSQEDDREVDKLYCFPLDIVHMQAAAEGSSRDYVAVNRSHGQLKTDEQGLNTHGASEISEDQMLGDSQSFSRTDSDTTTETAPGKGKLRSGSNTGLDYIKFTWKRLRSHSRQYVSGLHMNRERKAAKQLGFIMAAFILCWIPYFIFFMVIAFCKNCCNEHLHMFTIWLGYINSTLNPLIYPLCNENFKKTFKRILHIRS
Description: Example-48: Determination of Ki values at Histamine H1 receptor
• Receptor source: Recombinant mammalian cells (CHO-K1) • Radioligand: [^3H]-Pyrilamine (20.7 Ci/mmol) • Final ligand concentration: 2 nM • Non-specific determinant: 0.1 mM Pyrilamine • Reference compound: Pyrilamine • Positive control: Pyrilamine Incubation conditions: Reactions were carried out in buffer with pH 7.4 containing 67 mM Tris-HCl and SPA beads (0.1 mg/well) for 1 h at 37° C. Radioactivity proximal to SPA beads was determined by scintillation proximity assay and compared to the control values in order to ascertain any interactions of the test compound(s) with cloned human histamine H1 receptor binding site.

human 5-HT2A receptor = target: T5, human 5-HT2A receptor (Homo sapiens, UniProt P28223); assay: Determination of Ki values at 5-HT2A receptor ([3H]-Ketanserine radioligand binding); details: h5-HT2A, CHO-K1, [3H]-Ketanserine 1.25 nM
T5 construct: expressed in transfected cells; host or cells: CHO-K1
T5 sequence (P28223 whole entry): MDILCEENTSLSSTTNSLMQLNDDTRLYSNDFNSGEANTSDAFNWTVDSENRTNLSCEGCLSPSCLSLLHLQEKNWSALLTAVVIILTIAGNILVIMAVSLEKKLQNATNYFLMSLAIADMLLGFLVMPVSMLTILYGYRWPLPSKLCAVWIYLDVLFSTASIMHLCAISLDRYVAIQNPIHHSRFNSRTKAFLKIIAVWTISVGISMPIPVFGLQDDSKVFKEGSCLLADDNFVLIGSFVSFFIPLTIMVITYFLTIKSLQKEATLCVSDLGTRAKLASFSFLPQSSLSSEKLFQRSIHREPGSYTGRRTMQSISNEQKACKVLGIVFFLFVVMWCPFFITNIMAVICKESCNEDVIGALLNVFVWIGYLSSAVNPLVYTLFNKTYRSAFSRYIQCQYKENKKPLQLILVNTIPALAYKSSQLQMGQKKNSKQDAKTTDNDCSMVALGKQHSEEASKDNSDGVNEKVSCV
Description: Example-44: Determination of Ki Values at 5-HT2A Receptor
• Receptor source: Recombinant mammalian cells (CHO-K1) • Radioligand: [^3H]-Ketanserine (41.9 Ci/mmol) • Final ligand concentration: 1.25 nM • Non-specific determinant: 0.1 mM 1-Napthyl piperazine (1-NP) • Reference compound: 1-Napthyl piperazine (1-NP) • Positive control: 1-Napthyl piperazine (1-NP) Incubation conditions: Reactions were carried out in buffer with pH 7.4 containing 50 mM Tris-HCl, 4 mM CaCl2, 0.1% Ascorbic acid for 1 h at RT. The reaction was terminated by rapid vacuum filtration onto the glass fiber filters. Radioactivity trapped onto the filters was determined and compared to the control values in order to ascertain any interactions of the test compound(s) with cloned human 5-HT2A receptor binding site.

[3] = target: T6, human adrenergic α1B receptor (Homo sapiens, UniProt P35368); assay: Determination of Ki values at adrenergic α1B receptor ([3H]-Prazosin radioligand binding); details: hα1B, Chem-1 cells, [3H]-Prazosin 1 nM; read-out: Ki Alpha1B
T6 construct: expressed in transfected cells; host or cells: Chem-1
T6 sequence (P35368 1-520): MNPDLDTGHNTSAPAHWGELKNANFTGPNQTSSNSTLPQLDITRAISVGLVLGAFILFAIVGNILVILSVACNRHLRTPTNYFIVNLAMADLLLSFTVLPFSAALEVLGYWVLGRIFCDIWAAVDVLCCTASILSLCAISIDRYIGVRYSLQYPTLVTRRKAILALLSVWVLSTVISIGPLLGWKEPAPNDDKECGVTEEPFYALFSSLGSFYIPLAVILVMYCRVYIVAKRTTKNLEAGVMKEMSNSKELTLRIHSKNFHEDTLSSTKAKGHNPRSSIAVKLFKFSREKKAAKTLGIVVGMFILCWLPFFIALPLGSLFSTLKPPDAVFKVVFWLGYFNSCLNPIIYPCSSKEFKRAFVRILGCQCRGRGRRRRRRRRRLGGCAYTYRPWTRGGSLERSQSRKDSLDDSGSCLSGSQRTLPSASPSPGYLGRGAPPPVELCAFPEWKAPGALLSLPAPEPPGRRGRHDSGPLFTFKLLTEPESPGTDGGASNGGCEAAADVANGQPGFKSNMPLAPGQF
Description: Example-47: Determination of Ki Values at Adrenergic α1B Receptor
• Receptor source: Recombinant mammalian cells (Chem-1) • Radioligand: [^3H]-Prazosin (77.4 Ci/mmol) • Final ligand concentration: 1 nM • Non-specific determinant: 0.1 mM Prazosin • Reference compound: Prazosin • Positive control: Prazosin Incubation conditions: Reactions were carried out in buffer with pH 7.4 containing 67 mM Tris-HCl, 67 μM EDTA, […] for 1 h at RT. The reaction was terminated by rapid vacuum filtration onto the glass fiber filters. Radioactivity trapped onto the filters was determined and compared to the control values in order to ascertain any interactions of the test compound(s) with cloned human adrenergic α1B receptor binding site.

DOPA levels in striatum = assay: Reserpine-induced DOPA accumulation; assay type: in vivo, Male Wistar rats; details: rats, s.c.
Description: Example-53: Reserpine-Induced DOPA Accumulation
Male Wistar rats were pretreated with reserpine (5 mg/kg, s.c.) approximately 18 h before sacrifice and were thereafter fasted until sacrifice. Example-2 (3 mg/kg, p.o.) and (3-(3-hydroxyphenyl)-N-n-propylpiperidine (3-PPP); 30 mg/kg, s.c.) were administered 1.16 h and 1 h, respectively before sacrifice. Haloperidol (0.5 mg/kg, s.c.) was used as a positive control and was dosed 10 min prior to 3-PPP in a separate group of animals. 3-Hydroxybenzylhydrazine dihydrochloride (NSD-1015; 100 mg/kg, s.c.) was then administered 0.5 h before sacrifice. Each rat was sacrificed, brain was removed and then striatum was isolated. The tissue was immediately weighed and homogenized in 0.1 N perchloric acid by means of an ultrasonic disruptor while being cooled in ice. The homogenate was centrifuged at 4° C. at 20,000 g for 15 min. The supernatant was assayed for dihydroxyphenylalanine (DOPA) levels using HPLC-ECD.

Ki (human 5-HT1A receptor) [nM] | Ki [1] [nM] | Ki (human SERT) [nM] | Ki [2] [nM] | Ki (human 5-HT2A receptor) [nM] | Ki [3] [nM] | SMILES | Increase in DOPA levels in striatum (DOPA levels in striatum; reserpine 5 mg/kg, about 18 h before sacrifice) | Reversal in reserpine induced DOPA accumulation (DOPA levels in striatum; 30 mg/kg, 1 h before sacrifice, striatum) [%]
1.8 | 0.7 | 1670 | 3.5 | 0.3 | 1.5 | Cc1nnc(-c2csc(OCCCN3CCC(c4noc5cc(F)ccc45)CC3)n2)o1 [compound 24, 6-Fluoro-3-(1-{3-[4-(5-methyl-[1,3,4]oxadiazol-2-yl)-thiazol-2-yloxy]-propyl}-piperidin-4-yl)-benzo[d]isoxazole oxalate] |  | 
 |  |  |  |  |  | COC(=O)[C@H]1[C@H]2C[C@@H]3c4[nH]c5cc(OC)ccc5c4CCN3C[C@H]2C[C@@H](OC(=O)c2cc(OC)c(OC)c(OC)c2)[C@@H]1OC [reserpine] | about 194% | 
0.3 | 0.4 | 18.8 | 1.8 | 0.01 | 5.7 | c1ccc2c(N3CCN(CCCOc4ccc(-c5cnco5)cn4)CC3)nsc2c1 [compound 22, 3-{4-[3-(5-Oxazol-5-yl-pyridin-2-yloxy)-propyl]-piperazin-1-yl}-benzo[d]isothiazole oxalate] |  | 
 |  |  |  |  |  | CCCN1CCCC(c2cccc(O)c2)C1 (centres unmarked) [Example 3-PPP, 3-(3-hydroxyphenyl)-N-n-propylpiperidine] |  | 77
0.4 | 1.5 | 217 | 4.2 | 0.5 | 44.1 | Cc1nc(-c2csc(OCCCN3CCN(c4nsc5ccccc45)CC3)n2)no1 [compound 10, 3-(4-{3-[4-(5-Methyl-[1,2,4]oxadiazol-3-yl)-thiazol-2-yloxy]-propyl}-piperazin-1-yl)-benzo[d]isothiazole oxalate] |  | 

SMILES | Ki (human 5-HT1A receptor) [nM] | Ki [1] [nM] | Ki (human SERT) [nM] | Ki [2] [nM] | Ki (human 5-HT2A receptor) [nM] | Ki [3] [nM] | Increase in DOPA levels in striatum (DOPA levels in striatum; reserpine 5 mg/kg, about 18 h before sacrifice) | Reversal in reserpine induced DOPA accumulation (DOPA levels in striatum; 30 mg/kg, 1 h before sacrifice, striatum) [%]
Cc1nnc(-c2csc(OCCCN3CCN(c4nsc5ccccc45)CC3)n2)o1 [Example-1, 3-(4-{3-[4-(5-Methyl-[1,3,4]oxadiazol-2-yl)-thiazol-2-yloxy]-propyl}-piperazin-1-yl)-benzo[d]isothiazole] | 0.1 | 0.51 | 54.3 | 8.8 | 0.35 | 12.5 |  | 
